Laboratory results from PubChem BioAssay (NCI).
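Method: 48-hour compound exposure of cells in 96-well plates, five concentrations, linear interpolation of endpoints. TGI denotes the concentration required for complete inhibition of growth.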

Assays:
Assay in all cases: NCI anticancer screen, dose series, 48 h
[1] = tested on: 786-0 renal
[2] = tested on: A498 renal
[3] = tested on: A549 NSCLC
[4] = tested on: ACHN renal
[5] = tested on: BT-549 breast
[6] = tested on: CAKI-1 renal
[7] = tested on: CCRF-CEM leukemia
[8] = tested on: COLO 205 colon
[9] = tested on: DU-145 prostate
[10] = tested on: EKVX NSCLC
[11] = tested on: HCC-2998 colon
[12] = tested on: HCT-116 colon
[13] = tested on: HCT-15 colon
[14] = tested on: HL-60(TB) leukemia
[15] = tested on: HOP-62 NSCLC
[16] = tested on: HS 578T breast
[17] = tested on: HT29 colon
[18] = tested on: IGROV1 ovarian
[19] = tested on: K-562 leukemia
[20] = tested on: KM12 colon
[21] = tested on: LOX IMVI melanoma
[22] = tested on: M14 melanoma
[23] = tested on: MALME-3M melanoma
[24] = tested on: MCF7 breast
[25] = tested on: MDA-MB-231 breast
[26] = tested on: MDA-MB-435
[27] = tested on: NCI-H226 lung
[28] = tested on: NCI-H23 lung
[29] = tested on: NCI-H460 lung
[30] = tested on: NCI-H522 lung
[31] = tested on: NCI/ADR-RES ovarian
[32] = tested on: OVCAR-3 ovarian
[33] = tested on: OVCAR-4 ovarian
[34] = tested on: OVCAR-5 ovarian
[35] = tested on: OVCAR-8 ovarian
[36] = tested on: PC-3 prostate
[37] = tested on: RPMI-8226 leukemia
[38] = tested on: RXF 393 renal
[39] = tested on: SF-268 CNS
[40] = tested on: SF-295 CNS
[41] = tested on: SF-539 CNS
[42] = tested on: SK-MEL-2 melanoma
[43] = tested on: SK-MEL-28 melanoma
[44] = tested on: SK-MEL-5 melanoma
[45] = tested on: SK-OV-3 ovarian
[46] = tested on: SN12C renal
[47] = tested on: SNB-19 CNS
[48] = tested on: SNB-75 CNS
[49] = tested on: SR leukemia
[50] = tested on: SW-620 colon
[51] = tested on: T-47D breast
[52] = tested on: TK-10 renal
[53] = tested on: U251 CNS
[54] = tested on: UACC-257 melanoma
[55] = tested on: UACC-62 melanoma
[56] = tested on: UO-31 renal
[57] = tested on: MOLT-4 leukemia

Measured: TGI

COC(=O)C1=C(OC(=O)/C(=C/c2ccccc2)c2ccccc2)C(C(=O)OC)[C@@]2(O)[C@@H](C(=O)OC)[C@H](C)C[C@@H]1[C@@H]2C(=O)OC (some centres not stated)
> 100 µM: [1] | [2] | [3] | [4] | [5] | [6] | [7] | [8] | [9] | [10] | [11] | [12] | [13] | [14] | [15] | [16] | [17] | [18] | [19] | [20] | [21] | [22] | [23] | [24] | [25] | [26] | [27] | [28] | [29] | [30] | [31] | [32] | [33] | [34] | [35] | [36] | [37] | [38] | [39] | [40] | [41] | [42] | [43] | [44] | [45] | [46] | [47] | [48] | [49] | [50] | [51] | [52] | [53] | [54] | [55] | [56]

C/C(=C\CO)CC/C=C(\C)CNc1ccccc1
47.9 µM: [17]
79.5 µM: [49]
91.8 µM: [54]
98.5 µM: [30]
65.4 µM: [52]
66.9 µM: [23]
34.1 µM: [44]
> 100 µM: [1] | [3] | [4] | [6] | [8] | [9] | [12] | [13] | [14] | [15] | [18] | [19] | [20] | [21] | [22] | [24] | [25] | [26] | [27] | [29] | [31] | [32] | [34] | [35] | [36] | [38] | [39] | [40] | [41] | [43] | [45] | [46] | [47] | [50] | [53] | [55] | [56]
54.6 µM: [48]
55.2 µM: [5]
93.7 µM: [10]
27.1 µM: [28]
97.8 µM: [16]
25.7 µM: [57]
81 µM: [51]
